Like-named read-outs stand apart in the source and are kept apart here.
Assays:
[1] = system: positive (hedonic) 50-kHz ultrasonic vocalizations (USVs); assay: Positive Emotional Learning (PEL) test; format: in vivo; settings: rat, PO, one hour after administration
How it was run: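 Rats received test compound or vehicle (0.5% carboxymethyl cellulose in saline) 1 h before 3 min of experimenter-delivered rough-and-tumble play in alternating 15 s play and no-stimulation blocks. Frequency-modulated 50-kHz USVs during no-stimulation (CS) periods were counted; animals not habituated beforehand.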

[2] = Microsomal stability (Human); format: in vitro ADME; settings: human microsomes
Experimental: (§1) Microsomal stability of disclosed compounds was investigated. The following table indicates the percent of compound remaining after 60 minutes.

[3] = Microsomal stability (Rat); format: in vitro ADME; settings: rat microsomes
Experimental: as §1

Plasma stability (Human) = format: in vitro ADME
Experimental: (§2) Plasma stability of disclosed compounds was investigated. The following table indicates the percent of compound remaining after 60 minutes.

Plasma stability (Rat) = format: in vitro ADME
Experimental: as §2

[4] = molecular target: T1, NMDAR2A expressing HEK cell membranes (Homo sapiens, UniProt Q05586+Q12879); assay: NMDAR agonist assay, [3H]MK-801 binding, NMDAR2A; format: biochemical; settings: 50 μM glutamate
T1 construct: expressed in transfected cells; host or cells: HEK cells (membrane extract)
Experimental: (§3) (nonequilibrium conditions).
(§4) The baseline value was determined from the best fit curve of the DPM values modeled using the GraphPad program and the log(agonist) vs. response(three parameters) algorithm was then subtracted from all points in the dataset.

[5] = molecular target: T2, NMDAR2B expressing HEK cell membranes (Homo sapiens, UniProt Q05586+Q13224); assay: NMDAR agonist assay, [3H]MK-801 binding, NMDAR2B; format: biochemical; settings: 50 μM glutamate; for EC50: [3H]MK-801 binding, read-out: NMDAR2B log EC50 (converted)
T2 construct: expressed in transfected cells; host or cells: HEK cells (membrane extract)
Experimental: as §3, §4

[6] = molecular target: T3, NMDAR2C expressing HEK cell membranes (Homo sapiens, UniProt Q05586+Q14957); assay: NMDAR agonist assay, [3H]MK-801 binding, NMDAR2C; format: biochemical; settings: 50 μM glutamate; [3H]MK-801 binding; read-out: NMDAR2C: log EC50 (converted)
T3 construct: expressed in transfected cells; host or cells: HEK cells (membrane extract)
Experimental: as §3, §4

[7] = molecular target: T4, NMDAR2C expressing HEK cell membranes (Homo sapiens, UniProt Q14957); assay: NMDAR agonist assay, [3H]MK-801 binding, NMDAR2C; format: biochemical; settings: 50 μM glutamate
T4 construct: expressed in transfected cells; host or cells: HEK cells (membrane extract)
Experimental: as §3, §4

[8] = molecular target: T5, NMDAR2D expressing HEK cell membranes (Homo sapiens, UniProt O15399); assay: NMDAR agonist assay, [3H]MK-801 binding, NMDAR2D; format: biochemical; settings: 50 μM glutamate; for EC50: [3H]MK-801 binding, read-out: NMDAR2D: log EC50 (converted)
T5 construct: expressed in transfected cells; host or cells: HEK cells (membrane extract)
Experimental: as §3, §4

[9] = molecular target: T6, NMDAR2D expressing HEK cell membranes (Homo sapiens, UniProt O15399+Q05586); assay: NMDAR agonist assay, [3H]MK-801 binding, NMDAR2D; format: biochemical; settings: 50 μM glutamate; for EC50: [3H]MK-801 binding, read-out: NMDAR2D: log EC50 (converted)
T6 construct: expressed in transfected cells; host or cells: HEK cells (membrane extract)
Experimental: as §3, §4

[10] = molecular target: T7, NMDAR2A expressing HEK cell membranes (Homo sapiens, UniProt Q12879); assay: NMDAR agonist assay, [3H]MK-801 binding, NMDAR2A; format: biochemical; settings: 50 μM glutamate; for EC50: [3H]MK-801 binding, read-out: NMDAR2A: log EC50 (converted)
T7 construct: expressed in transfected cells; host or cells: HEK cells (membrane extract)
Experimental: as §3, §4

[11] = molecular target: T8, NMDAR2B expressing HEK cell membranes (Homo sapiens, UniProt Q13224); assay: NMDAR agonist assay, [3H]MK-801 binding, NMDAR2B; format: biochemical; settings: 50 μM glutamate; for EC50: [3H]MK-801 binding, read-out: NMDAR2B log EC50 (converted)
T8 construct: expressed in transfected cells; host or cells: HEK cells (membrane extract)
Experimental: as §3, §4

IV pharmacokinetics = format: in vivo; set-up: C0: unit: ng/mL; settings: Sprague Dawley rats, 2 mg/kg, normal saline
Experimental: Sprague Dawley rats were dosed intravenously using a normal saline formulation containing 2 mg/kg of the compounds identified in the below table. The table below summarizes the results of the IV pharmacokinetics.

[12] = Oral pharmacokinetics (plasma, brain, CSF); format: in vivo; set-up: Cmax: unit: ng/mL; settings: Sprague Dawley rats, per os, 10 mg/kg; for Tmax: normal saline
Experimental: In another experiment, Sprague Dawley rats were dosed per os using a normal saline formulation containing 10 mg/kg of the compounds identified in the table below. Plasma, brain, and CSF samples were analyzed at various time points over a 24 hour period. The table below summarizes the results of the oral pharmacokinetics.

[13] = Sprague Dawley, rat, in vivo, iv
[14] = Sprague Dawley, rat, plasma, po

T6 sequence (O15399 28-1336, other chains not shown): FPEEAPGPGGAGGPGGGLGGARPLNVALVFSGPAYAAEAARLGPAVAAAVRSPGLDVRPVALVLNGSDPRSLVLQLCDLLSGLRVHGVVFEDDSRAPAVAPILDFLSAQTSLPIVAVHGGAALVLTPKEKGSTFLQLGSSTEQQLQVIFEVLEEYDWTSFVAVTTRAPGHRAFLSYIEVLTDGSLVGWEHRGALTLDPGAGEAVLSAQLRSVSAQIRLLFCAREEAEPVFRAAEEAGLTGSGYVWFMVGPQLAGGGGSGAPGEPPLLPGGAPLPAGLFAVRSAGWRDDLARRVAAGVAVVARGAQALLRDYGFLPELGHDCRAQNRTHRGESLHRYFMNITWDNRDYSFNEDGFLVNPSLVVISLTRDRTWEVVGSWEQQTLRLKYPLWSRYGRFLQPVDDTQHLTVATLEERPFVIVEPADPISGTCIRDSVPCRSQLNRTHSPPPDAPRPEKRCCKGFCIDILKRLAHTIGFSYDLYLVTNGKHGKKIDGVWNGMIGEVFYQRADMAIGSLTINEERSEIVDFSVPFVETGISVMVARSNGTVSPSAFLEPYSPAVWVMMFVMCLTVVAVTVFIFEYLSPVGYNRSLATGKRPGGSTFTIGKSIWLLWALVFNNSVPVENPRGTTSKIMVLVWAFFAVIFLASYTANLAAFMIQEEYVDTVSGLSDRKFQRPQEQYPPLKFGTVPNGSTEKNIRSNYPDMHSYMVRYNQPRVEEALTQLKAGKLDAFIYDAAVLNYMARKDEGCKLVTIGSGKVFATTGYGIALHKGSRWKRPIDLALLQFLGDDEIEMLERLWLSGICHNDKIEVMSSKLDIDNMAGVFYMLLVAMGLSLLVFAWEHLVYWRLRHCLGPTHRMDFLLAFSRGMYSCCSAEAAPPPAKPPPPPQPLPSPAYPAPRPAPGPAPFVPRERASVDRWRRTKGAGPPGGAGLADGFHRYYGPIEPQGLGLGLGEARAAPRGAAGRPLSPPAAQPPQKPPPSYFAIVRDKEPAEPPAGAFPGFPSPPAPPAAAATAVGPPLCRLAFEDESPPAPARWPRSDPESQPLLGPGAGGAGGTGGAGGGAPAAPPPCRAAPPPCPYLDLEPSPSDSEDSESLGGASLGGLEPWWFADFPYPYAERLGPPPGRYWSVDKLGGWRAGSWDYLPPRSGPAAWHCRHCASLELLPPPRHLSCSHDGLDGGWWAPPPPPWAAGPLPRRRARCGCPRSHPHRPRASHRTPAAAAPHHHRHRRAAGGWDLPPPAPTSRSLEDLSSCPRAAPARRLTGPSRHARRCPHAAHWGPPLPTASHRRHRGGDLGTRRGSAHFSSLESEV
T5 sequence (O15399 28-1336, other chains not shown): as above
T8 sequence (Q13224 27-1484, other chains not shown): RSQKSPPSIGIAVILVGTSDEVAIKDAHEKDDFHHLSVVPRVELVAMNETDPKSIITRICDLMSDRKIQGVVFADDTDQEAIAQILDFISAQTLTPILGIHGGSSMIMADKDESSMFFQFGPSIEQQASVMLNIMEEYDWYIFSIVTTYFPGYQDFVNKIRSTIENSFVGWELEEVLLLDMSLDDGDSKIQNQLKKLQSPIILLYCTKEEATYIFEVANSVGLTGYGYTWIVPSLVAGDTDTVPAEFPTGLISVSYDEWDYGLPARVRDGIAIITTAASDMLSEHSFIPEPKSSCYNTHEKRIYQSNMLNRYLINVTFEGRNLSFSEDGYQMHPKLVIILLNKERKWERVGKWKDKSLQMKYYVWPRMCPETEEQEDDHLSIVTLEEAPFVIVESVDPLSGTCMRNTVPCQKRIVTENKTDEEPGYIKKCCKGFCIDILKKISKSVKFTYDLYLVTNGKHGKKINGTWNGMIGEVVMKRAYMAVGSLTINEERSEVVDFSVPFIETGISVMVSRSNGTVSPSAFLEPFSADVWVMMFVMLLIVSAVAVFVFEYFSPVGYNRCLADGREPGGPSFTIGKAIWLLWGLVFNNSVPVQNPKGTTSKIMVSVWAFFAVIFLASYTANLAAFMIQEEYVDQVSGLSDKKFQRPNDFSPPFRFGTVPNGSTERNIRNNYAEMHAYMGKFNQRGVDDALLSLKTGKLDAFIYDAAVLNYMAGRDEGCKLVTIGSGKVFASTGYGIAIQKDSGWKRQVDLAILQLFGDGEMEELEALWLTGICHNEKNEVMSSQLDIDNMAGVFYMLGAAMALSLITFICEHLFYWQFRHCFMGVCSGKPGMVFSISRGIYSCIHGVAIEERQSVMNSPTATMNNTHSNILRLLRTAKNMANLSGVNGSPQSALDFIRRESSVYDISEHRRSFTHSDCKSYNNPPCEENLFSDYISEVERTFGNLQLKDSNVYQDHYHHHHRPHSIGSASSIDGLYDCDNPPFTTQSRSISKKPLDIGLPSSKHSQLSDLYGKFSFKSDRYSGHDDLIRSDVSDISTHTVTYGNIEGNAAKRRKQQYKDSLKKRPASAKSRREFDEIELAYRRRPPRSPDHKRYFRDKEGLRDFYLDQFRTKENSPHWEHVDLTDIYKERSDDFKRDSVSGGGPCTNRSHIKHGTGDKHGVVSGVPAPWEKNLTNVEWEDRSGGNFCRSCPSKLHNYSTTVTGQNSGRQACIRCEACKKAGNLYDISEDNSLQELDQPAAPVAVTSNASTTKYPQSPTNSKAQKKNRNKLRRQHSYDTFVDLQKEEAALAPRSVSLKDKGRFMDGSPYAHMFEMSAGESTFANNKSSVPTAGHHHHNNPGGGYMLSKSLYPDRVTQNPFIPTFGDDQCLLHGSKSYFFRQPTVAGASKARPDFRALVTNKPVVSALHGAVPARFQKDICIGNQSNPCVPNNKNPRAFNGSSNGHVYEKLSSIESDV
T2 sequence (Q13224 27-1484, other chains not shown): as above

| Structure (SMILES) | Microsomal (Human): percent of compound remaining after 60 minutes [2] [%] | Microsomal (Rat): percent of compound remaining after 60 minutes [3] [%] | Plasma (Human): percent of compound remaining after 60 minutes (Plasma stability (Human)) [%] | Plasma (Rat): percent of compound remaining after 60 minutes (Plasma stability (Rat)) [%] | EC50 [5] [nM] | EC50 [6] [nM] | NMDAR2C A: % maximal [3H]MK-801 binding relative to 1 mM glycine [7] | NMDAR2D: % maximal [3H]MK-801 binding relative to 1 mM glycine [8] | EC50 [9] [nM] | EC50 [10] [nM] | NMDAR2A: % maximal [3H]MK-801 binding relative to 1 mM glycine [10] | EC50 [11] [nM] | NMDAR2B: % maximal [3H]MK-801 binding relative to 1 mM glycine [11] | Vss (IV pharmacokinetics) [L/kg] | CSF Cmax [12] [ng/mL] | Brain Cmax [12] [ng/mL] | EC50 [8] [nM] | Max Effect (mean number of 50 kHz USVs per 15 seconds) ([1]; dose 0.1 mg/kg) | further results |
| --- | --- | --- | --- | --- | --- | --- | --- | --- | --- | --- | --- | --- | --- | --- | --- | --- | --- | --- | --- |
| C[C@@H](O)[C@H](NC(=O)C1CCC2(CNC2=O)N1Cc1ccccc1)C(N)=O (single isomer, unassigned) [AM] | 95 | 99 | 88 | 87 | < 1 | > 100 | − (−=0) |  | < 1 | < 1 | + (<100%=+) |  | + (<100%=+) | 1.21 | 0 | 0 |  | * (*: 6-10.9) | Emax ([9]; relative to 1 mM glycine, read-out: NMDAR2D: % maximal [3H]MK-801 binding relative to 1 mM glycine): < 100%; AUC(0-t) (IV pharmacokinetics; [13]): 1000 ng·h/mL; clearance (IV pharmacokinetics; [13]): 33.3 mL/min/kg; half-life (IV pharmacokinetics; [13]): 2.38 h; C0 (IV pharmacokinetics; Sprague Dawley, rat, in vivo, iv, read-out: C0): 3460 ng/mL; AUC(0-t) [12, 14]: 97.6 ng·h/mL; bioavailability [12, 14]: 2%; Tmax ([12]; Sprague Dawley, rat, plasma, po, read-out: Tmax): 0.33 h; Cmax ([12]; Sprague Dawley, rat, plasma, po, plasma, read-out: Cmax): 34.2 ng/mL |
| C[C@@H](O)[C@H](NC(=O)C1CCC2(CNC2=O)N1Cc1ccccc1)C(N)=O (single isomer, unassigned) [AN] | 88 | 87 | 88 | 87 | < 1 | < 1 | + (<100%=+) | + (<100%=+) |  | < 1 | + (<100%=+) |  | + (<100%=+) | 2.45 | 0 | 0 | < 1 | * (*: 6-10.9) | AUClast (IV pharmacokinetics): 727.7 ng·h/mL; C0 (IV pharmacokinetics): 3209.4 ng/mL; Cl (IV pharmacokinetics): 45.98 mL/min/kg; T1/2 (IV pharmacokinetics): 4.67 h; % F [12]: 3%; AUClast [12]: 126.32 ng·h/mL; Tmax [12]: 0.42 h; Cmax ([12]; plasma): 38.9 ng/mL |
| CC(C)(C)OC(=O)N1CC2(CNC2=O)CC12CNC2=O (centres unmarked) [AY-1] |  |  |  |  |  |  | + (<100%=+) | + (<100%=+) |  | > 100 | − (−=0) | < 1 | + (<100%=+) |  |  |  | < 1 |  | EC50 ([7]; [3H]MK-801 binding, read-out: NMDAR2C: log EC50 (converted)): < 1 nM |

More lines, main results first:

| Microsomal (Human): percent of compound remaining after 60 minutes [2] [%] | Microsomal (Rat): percent of compound remaining after 60 minutes [3] [%] | Plasma (Human): percent of compound remaining after 60 minutes (Plasma stability (Human)) [%] | Plasma (Rat): percent of compound remaining after 60 minutes (Plasma stability (Rat)) [%] | EC50 [5] [nM] | EC50 [6] [nM] | NMDAR2C A: % maximal [3H]MK-801 binding relative to 1 mM glycine [7] | NMDAR2D: % maximal [3H]MK-801 binding relative to 1 mM glycine [8] | EC50 [9] [nM] | EC50 [10] [nM] | NMDAR2A: % maximal [3H]MK-801 binding relative to 1 mM glycine [10] | EC50 [11] [nM] | NMDAR2B: % maximal [3H]MK-801 binding relative to 1 mM glycine [11] | Vss (IV pharmacokinetics) [L/kg] | CSF Cmax [12] [ng/mL] | Brain Cmax [12] [ng/mL] | EC50 [8] [nM] | Structure (SMILES) | Max Effect (mean number of 50 kHz USVs per 15 seconds) ([1]; dose 0.1 mg/kg) | further results |
| --- | --- | --- | --- | --- | --- | --- | --- | --- | --- | --- | --- | --- | --- | --- | --- | --- | --- | --- | --- |
| 98 | 100 | 94 | 94 | < 1 | < 1 | + (<100%=+) | + (<100%=+) | < 1 |  |  |  |  |  |  |  |  | O=C1NCC12CCC1(CNC1=O)N2Cc1ccccc1 (single isomer, unassigned) [AC-2, 5-benzyl-2,5,8-triazadispiro[3.1.36.24]undecane-1,7-dione] |  | Max Effect (mean number of 50 kHz USVs per 15 seconds) ([1]; dose 0.001-1 mg/kg): * (*: 6-10.9); EC50 ([4]; [3H]MK-801 binding, read-out: NMDAR2A: log EC50 (converted)): < 1 nM; Emax ([4]; relative to 1 mM glycine, read-out: NMDAR2A: % maximal [3H]MK-801 binding relative to 1 mM glycine): < 100%; Emax ([5]; relative to 1 mM glycine, read-out: NMDAR2B: % maximal [3H]MK-801 binding relative to 1 mM glycine): < 100% |
| 77 | 83 | 92 | 85 |  |  | + (<100%=+) | − (−=0) | > 100 | < 1 | + (<100%=+) | < 1 | + (<100%=+) |  |  |  |  | O=C1NCC12CCC1(CNC1=O)N2Cc1ccccc1 (single isomer, unassigned) [AC-3, 5-benzyl-2,5,8-triazadispiro[3.1.36.24]undecane-1,7-dione] |  |  |
